Measured values as given in US11827690B2, “ApoC-II mimetic peptides” (THE UNITED STATES OF AMERICA, as represented by the …, priority 2017, dated 2023).
Entries after “also recorded” stand apart in the source; their conditions may differ.

Tests used:
[1] = test system: chylomicrons isolated from human plasma; assay: ApoC-III displacement study in chylomicrons isolated from human plasma; assay type: binding
Experimental: VLDL or chylomicrons isolated from human plasma were incubated with an apoC-II mimetic peptide for 1 hour at 37° C. and washed 3 times with PBS using spin filter with 100 kDa cutoff membrane. Supernatants were brought to the original volume with PBS and loaded to 4-12% Bis-TRIS SDS PAGE gel. ApoC-I, apoC-II, apoC-III, and apoE bands were identified by their corresponding size.

[2] = test system: VLDL isolated from human plasma; assay: ApoC-III displacement study in VLDL isolated from human plasma; assay type: binding
Experimental: VLDL or chylomicrons isolated from human plasma were incubated with an apoC-II mimetic peptide for 1 hour at 37° C. and washed 3 times with PBS using spin filter with 100 kDa cutoff membrane. […] ApoC-I, apoC-II, apoC-III, and apoE bands were identified by their corresponding size.

[3] = test system: wild-type mice; assay: serum TG of wild-type mice after Intralipid injection with or without LPL inhibitor Triton WR1339; assay type: in vivo
Experimental: In some experiments, each animal received 20% Intralipid (FDA approved, Fresenius Kabi, Uppsala, Sweden) in a single dose either by oral gavage (using special sterile single-use non-toxic animal feeding needles) in a dose 10-20 μL/gram body weight (B.W.) (Tuzcu et al. Drug Chem Toxicol 37: 261-267, 2014; Kusminski et al. Nature Medicine 18: 1539-1549, 2012), or by intraperitoneal injection in a single bolus of 0.1-1.0 mL (Mahadero et al. American J Surgery 164: 45-50, 1992), or by intragastric administration of a dietetic commercially-available liquid oil (food grade vegetable, corn, soy or olive oil) in a single dose 10-20 μL/gram body weight. These oils were a source of TG—when absorbed TG tends to be broken down within 3 h (peak in 30 min) (Kritchevsky Nutritional Biochemistry 6:172-178, 1995). Blood samples (20-30 μL) were obtained from the retro-orbital plexus at time points: −1 h, 0 h, 1 h, 3 h, 6 h and 24 h for measurements of lipids. Mice were returned to metabolic cages after the 6 h time point where the food was put back. Once the study was completed (after 24 hours from the fat administration), mice were euthanized and organs collected.
The ability of apolipoprotein mimetic peptides to normalize hypertriglyceridemia in mice treated with an LPL inhibitor, Tyloxapol, in presence of high TG provided by 20% Intralipid, was assessed.
Mice were fasted overnight (approximately 12 hours) before the study and 6 hours during the study, the next day. The apo mimetic peptides were synthetically produced and free of biological contamination (not available as FDA approved compounds/treatment). Peptides were produced and used in sterile conditions and filtered by 0.2 nm filter before injections in a single dose 1-5 μmol/kg B.W. either S.C. or I.P. or I.V. (in a sterile, pharmaceutical grade PBS solution at a volume ≤200 μL). Next, 10% Tyloxapol (Triton WR-1339, T-0307, Sigma-Aldrich) was injected I.V. in a single dose of 5 μL/gram B.W., as described earlier (Zhang Y. L. et al., J Biol Chem. 279: 19362-19374, 2004; Abe C. et al., J. Nutr. 137: 345-350, 2007). […] Finally, each animal received 20% Intralipid (FDA approved, Fresenius Kabi, Uppsala, Sweden) in a single dose either by oral gavage (using special sterile single-use non-toxic animal feeding needles)—in a dose 10-20 μL/gram B.W. (Tuzcu K. et al., Drug Chem Toxicol., 37: 261-267, 2014, Kusminski C. et al., Nature Medicine. 18: 1539-1549, 2012), or by intraperitoneal injection—in a single bolus of 0.1-1.0 mL (Mahadero G. et al., American J Surgery. 164: 45-50, 1992). Blood samples (20-30 μL) were obtained from the retro-orbital plexus at time points: −1 h, 0 h, 1 h, 3 h, 6 h and 24 h for measurements of lipids. Mice were returned to metabolic cages after the 6 h time point where the food was put back. Once the study was completed (after 24 hours from the Intralipid administration), mice were euthanized and organs collected.

[4] = biological target: T1, LPL inhibited by apoC-III (Bos taurus, UniProt P11151); assay: LPL activation assay with high TG human plasma as substrate and recombinant apoC-III as an inhibitor; assay type: biochemical; conditions: for effect on inhibition of LPL by apoC-III: high TG human plasma substrate
T1 sequence (P11151 29-478): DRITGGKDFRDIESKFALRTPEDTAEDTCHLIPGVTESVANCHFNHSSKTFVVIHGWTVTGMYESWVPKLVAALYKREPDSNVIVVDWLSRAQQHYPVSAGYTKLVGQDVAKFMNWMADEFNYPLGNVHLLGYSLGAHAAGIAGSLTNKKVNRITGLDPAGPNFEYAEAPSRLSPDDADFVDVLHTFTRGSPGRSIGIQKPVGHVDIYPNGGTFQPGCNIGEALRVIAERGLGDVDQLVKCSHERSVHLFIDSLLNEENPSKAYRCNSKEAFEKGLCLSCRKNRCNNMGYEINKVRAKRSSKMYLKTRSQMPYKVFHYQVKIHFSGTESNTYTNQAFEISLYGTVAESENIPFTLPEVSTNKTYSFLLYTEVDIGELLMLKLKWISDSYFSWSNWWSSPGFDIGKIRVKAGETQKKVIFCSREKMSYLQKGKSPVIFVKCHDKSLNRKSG
Experimental: LPL activity assay: 10 μL of Intralipid, human plasma sample, or mouse plasma sample was added in each well using repeater pipette. 10 μL (or 15 μL in the wells with no LPL control) of PBS and 10 μL of 1% BSA was added in each well using repeater pipette. 10 μL of peptides were added to corresponding wells in vertical triplicates (lowest concentration is on a left, highest is on the right). The plate was spun down at 1000 RPM for 10 seconds to mix and to remove the solutions from the wall of each well. The plate was put on ice and 5 μL of LPL was added using repeater pipette. The plate was spun down again at 1000 RPM for 10 seconds. The plate was covered and put back on ice for an incubation of 30 min. The plate was then moved to 37° C. and incubated for 1 hour.
Free fatty acids (NEFA) assay: 45 μL of 5 nmoL standard and 0 nmoL control (0.2% BSA) were added to corresponding wells. 225 μL of reagent A was added in each well using the reagent tray and 12-channel pipette. The plate was incubated for 10 min before 75 μL of reagent B was added to each well using the reagent tray and 12-channel pipette. The plate was not covered due to the high volume. The absorbance at 550 nm and 660 nm was measured.
LPL assay was performed using Intralipid, high TG human plasma (1:50 dilution), or apoC-III transgenic mouse plasma (1:50 dilution). When Intralipid was used as a substrate, 25 or 50 μM recombinant ApoC-III was added as an inhibitor. When the high TG human plasma was used as a substrate, 25 or 50 μM recombinant ApoC-III was added as an inhibitor with or without pre-incubation at 37° C. for 1 hour. An apoC-II mimetic peptide was added at various concentrations.

[5] = biological target: T2, LPL (Bos taurus, UniProt P11151); assay: addition of exogenous LPL to serum samples collected after IP injection with Intralipid; assay type: biochemical
T2 sequence (P11151 29-478): T1 sequence (P11151 29-478)

Sequence | affinity for chylomicrons compared with the apolipoproteins [1] | affinity for the VLDL compared with the apolipoproteins [2] | selectivity of apolipoprotein displacement ([2]; MALDI-TOF mass spectrometry, FIG. 29A) | binding of peptide to VLDL versus concentration ([2]; MALDI-TOF, FIG. 29B) | block of rise in serum TG after IP injection of Intralipid ([3]; co-injected with the LPL inhibitor Triton WR1339) | influence of pre-incubation of apoC-III with human plasma on peptide effect [4] | concentration at which it overcame the inhibitory effect of apoC-III ([4]; 50 μM apoC-III, FIG. 32) | concentration at which it started to affect lipolysis ([4]; 50 μM apoC-III, FIG. 32) [µM] | effect on inhibition of LPL by apoC-III [4] | effect on inhibition of LPL by apoC-III ([4]; listed as ApoC-II-a) | lipoprotein particles from treated mice as substrates for LPL [5] | apoC-II displacement in VLDL ([2]; FIG. 49) | apoC-III displacement in VLDL ([2]; SDS PAGE) | effect on inhibition of LPL by Triton ([3]; FIG. 35B) | serum TG increase after Intralipid injection ([3]; intraperitoneal peptide, presence or absence of Triton, FIG. 35B) | serum TG increase after Intralipid injection ([3]; repeat-dose study, peptide IP 1 hour after Intralipid, 0.25 and 1 μmole/kg, FIG. 46B)
DWLKAFYDKVAEKLKEAFPAMSTYTGIFTDQVLSVLKGEE (listed as Homo sapiens) [apoC-II-a, excluded from the claimed peptides] | higher affinity for chylomicrons than the apolipoproteins | higher affinity for the VLDL than the apolipoproteins | selectively replaced apoC-III and apoC-I, but not apoC-II; also recorded: selectively displaces apoC-III and apoC-I but not apoC-II | almost proportional to its concentration; also recorded: approximately proportional to its concentration | about 50% | did not change the effect | about 0.2 μM | 0.01 | further facilitated lipolysis | overcomes the inhibition by apoC-III | better substrates for LPL | – | – | – | – | –
DYLKEVFEKLRDLYEKFTPAVSTYTGIFTDQVLSVLKGEE [Delta6PV] | – | higher affinity for the VLDL than the apolipoproteins | – | – | – | – | – | – | overcomes the inhibition of apoC-III | – | – | also displaced | displaced apoC-III in a dose-dependent matter | reversed the inhibition of LPL by Triton | the TG increase was significantly reduced | the TG increase was significantly reduced
